Reference: US20140370541A1, “CELL CULTURE LIQUID/GAS-PHASE CHAMBER DEVICES AND RELATED METHODS, AND EXEMPLARY USE FOR MEASURING ACCUMULATION OF GAS-PHASE NITRIC OXIDE IN DIFFERENTIATED CULTURES OF NORMAL AND CYSTIC FIBROSIS AIRWAY EPITHELIAL CELLS” (UNIVERSITY OF NORTH CAROLINA, priority 2012, published 2014)
Several values for one entry are separate records, joined by “and”; a condition that tells them apart may be missing. Identical values can stand only once. Entries after “also recorded” stand apart in the source; their conditions may differ.

Legend:
[1] = test system: control human bronchial epithelial (HBE) cells; assay: Gas-phase NO (gNO) accumulation above control HBE cultures in gas-tight liquid/gas-phase chamber; type: cell-based; conditions: for gas-phase level of NO: differentiated HBE, IFN-γ
Experimental: (§1) In preliminary studies, attempts were made to measure gNO release from well-differentiated cultures of HBE cells under the conditions described by Suresh et al. (21). Because some difficulties were encountered in obtaining a reproducible, gas-tight seal, both around the holes drilled in the plastic for the fittings and around the lid of the dish using parafilm, the procedure was modified in the following manner. First, 120 ml Teflon® jars (Savillex) were fitted with silicone O-rings to create a leak-proof seal. Two holes were drilled in the lid and fitted with stainless steel luer-lock adapters that were fastened tightly using stainless steel washers and nuts. The luer-lock adapters were fitted with two 3-way plastic stop-cocks to allow connections to be made to the Sievers 270B NO or other analyzers and room or zero air. Manufactured Teflon partition was inserted into the jar to hold the transwells containing cells and to separate the liquid compartment from the headspace.
(§2) For measurement of gNO production by HBE cultures, ALI media was added to each chamber. The apical surface of each culture was washed with 1 ml of PBS for 5 minutes at 37° C. to remove mucus and cell debris. Unless otherwise specified, 50 μl of PBS was added to the apical surface of the culture to provide a thin layer of ASL and allow cilia to beat freely. Three, 12 mm cultures were placed in each chamber, and the chambers were placed in a 37° C./5% CO2 incubator with the lids removed for 5 minutes to allow equilibration with incubator air. The lids were then replaced and tightened with both stop-cocks fully closed. After the appropriate incubation time, the chambers were removed from the incubator and connected to an NO analyzer. The stop-cocks were simultaneously opened to allow room air into the chamber while sample was being withdrawn into the analyzer for measurement. For these studies, NO was measured using a Sievers 280B nitric oxide analyzer with a flow rate of 40 ml/min. For the measurements of gNO production by nasal cultures the flow rate was increased to 500 ml/min. The analyzer was routinely calibrated using NO free air and nitric oxide standards, and zeroed before each experimental run. The level of NO was determined in room air and was usually <5 ppb. The analog output from the NO analyzer was directed into a MACLAB analog-digital converter and computer for data analyses and archiving. All NO measurements are reported as the peak concentration obtained during the sampling period, usually within the first 15 seconds.
(§3) Ciliated cells first become visible ˜14 days after establishment of an air-liquid interface, and the number of ciliated cells continues to increase with time so that by ˜31 days, the cultures typically consist of a multi-layered, pseudo-stratified, heavily ciliated epithelium, as illustrated in FIG. 1B. FIG. 1B is a micrograph 12 of differentiated cultures 14 consisting of a pseudo-stratified epithelium 16 stained with hematoxylin and eosin with abundant ciliated cells at the apical surface 18. To measure gas-phase NO (gNO) production, the apical surface of the cultures were washed, a small volume of PBS (50 ul) was added to wet the surface, and the cultures were incubated overnight (19-20 hours) in a gas-tight, NO inert, cell culture liquid/gas-phase chamber developed for the measurement of gNO (schematically shown in FIG. 2A).

[2] = test system: iNOS mRNA in cystic fibrosis (CF) HBE cells; assay: RT-PCR of iNOS mRNA in CF HBE cultures; type: cell-based, human; conditions: differentiated CF HBE stimulated with IFN-γ, qualitative RT-PCR
[3] = test system: iNOS mRNA in control (Normal) HBE cells; assay: RT-PCR of NOS isoform RNA in control HBE cultures; type: cell-based, human
Experimental: To examine the effect of an inflammatory cytokine on NO production, well-differentiated cultures of normal HBE cells were treated with different concentrations of interferon-gamma (IFN-γ), a potent inducer of iNOS (7-10). Total RNA was isolated and RT-PCR was used to qualitatively assess the level of the NOS isoforms. […] To examine the effect of IFN-γ on gNO, well-differentiated cultures (mean age 128 days) of control HBE cells were treated with interferon-gamma (IFN-γ) overnight. Treatment with 100 ng/ml of IFN-γ increased the level of accumulated NO>50-fold (see FIG. 5), averaging 576+/−200 ppb (n=22; 8 donors). The IFN-γ induced increase in NO was highly significant (p=6.5×10E-6). Increased levels of iNOS RNA and gNO were observed as early as 6 hours after treatment (data not shown), and levels of NO continued to increase for at least 24 hours.

[4] = test system: HBE cells; assay: Total nitrate/nitrite (NOx) in basal media; type: cell-based, human; conditions: cultures treated with IFN-γ
Experimental: Measurements of total nitrite/nitrate in apical and basolateral media samples were performed using the Parameter kit (R&D Systems, Minneapolis, Minn.) according to the manufacturer's instructions. Briefly, a 0.5 ml sample of media was obtained from the basolateral chamber at the conclusion of the experiment and frozen at −20° C. until analyzed. Each sample was assayed in duplicate and compared to a standard curve, which was prepared in the same ALI media used to culture the cells.
Nitric oxide present in biological fluids rapidly reacts with other molecules to produce a variety of products. In aqueous solutions, nitrite and nitrate are two of the major metabolites of NO reaction. To determine if the level of NO products in the basal media increased in a similar manner as the levels of gNO, the total amount of nitrate/nitrite (NOx) in a subset of experiments using the Griese reaction was measured. As expected, the level of nitrate/nitrite in the media was higher in cultures treated with IFN-γ than in untreated cultures, averaging 9.3+/−3.1 μM in treated cultures compared to 2.0+/−0.5 μM in untreated cultures (p=0.005; donors=7, 3). The level of NOx in the media increased proportionally to the level of gNO, with a correlation coefficient of 0.74 (y=2.33x+0.28; R^2=0.74), as shown in the chart 92 in FIG. 9. […]

[5] = test system: CF human bronchial epithelial (HBE) cells; assay: Gas-phase NO (gNO) accumulation above CF HBE cultures in gas-tight liquid/gas-phase chamber; type: cell-based
Experimental: as §1, §2
as §3, with “2A). […]” for “2A).”

[6] = undifferentiated control HBE cultures, IFN-γ treatment

Compound	inhibition of gNO production ([1]; control HBE cells, preliminary experiment FIG. 4A, after IFN-γ treatment)	iNOS expression [2]	levels of nNOS and eNOS ([3]; control HBE treated with IFN-γ, RT-PCR (not shown))	level of iNOS RNA / iNOS expression ([3]; differentiated control HBE, increasing concentrations of IFN-γ, qualitative RT-PCR)	level of nitrate/nitrite in the media [4] [µM]	NO concentration ([1]; 6 hr incubation with 10 μL INF-γ (100 ng/ml) in HBSS medium, FIG. 4B)	gas-phase level of NO ([1]; 6 hours, 50 μL PBS)	gas-phase level of NO ([1]; 6 hours, submerged with 420 μL PBS)	gas-phase level of NO ([1]; 20 hours, 50 μL PBS)	gas-phase level of NO ([1]; 20 hours, submerged with 420 μL PBS)	fold increase of accumulated gNO over baseline ([1]; differentiated control HBE cultures, 100 ng/ml IFN-γ)	level of accumulated gNO ([1]; differentiated control HBE cultures, 100 ng/ml IFN-γ overnight (19-20 hours), 50 μl PBS apical)	fold increase in gNO [1, 6] [fold]	level of gNO [1, 6]	effect on gNO ([1]; undifferentiated cultures, IFN-γ treatment)	level of gNO ([5]; differentiated CF HBE cultures, IFN-γ 100 ng/ml, 19-20 hours)	level of gNO ([5]; differentiated CF cells stimulated with IFN-γ, submerged with 420 μl PBS)	level of gNO ([5]; differentiated CF cells stimulated with IFN-γ, submersion experiments, not submerged)	ratio of gNO, control cells versus CF cells after IFN-γ treatment ([5]; differentiated cultures treated with IFN-γ) [fold]	level of gNO ([5]; undifferentiated CF cells after stimulation with IFN-γ)
COC(=O)[C@@H](N)CCCNC(=N)N[N+](=O)[O-] [L-NAME, reference compound]	inhibited completely	–	–	–	–	–	–	–	–	–	–	–	–	–	–	–	–	–	–	–
interferon gamma [IFN-γ]	–	increase in iNOS expression	relatively unchanged	induced iNOS expression; also recorded: clear increase	9.3 ± 3.1	marked elevation	379+/−210 ppb	6.6+/−5.6 ppb	1642.5+/−31 ppb	26.5+/−6.4 ppb	> 50 fold and ~50 fold	576 ppb and 576+/−200 ppb and > 500 ppb	~2	9.5+/−3.3 ppb and ~10 ppb	no significant effect	192 ppb and 192.3+/−68.9 ppb	11+/−4.3 ppb	98+/−35 ppb	3	15.6+/−6.8 ppb
